We go through 23 compounds from patent US11834463B2, “High affinity macrocyclic FKB51-inhibitors for treatment of psychiatric disorders” (priority 2020, dated 2023).

Where two headings read alike, the source gives them in different places.

In one experiment the target is T1, FKBP51FK1 (Homo sapiens, UniProt Q13451).
T1 sequence (Q13451 42-130 limits assumed): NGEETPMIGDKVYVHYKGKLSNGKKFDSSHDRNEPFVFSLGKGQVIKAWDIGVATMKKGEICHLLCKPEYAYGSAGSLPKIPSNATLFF
Briefly: biochemical. The method, then: (§1) All macrocyclic compounds were tested in a competitive fluorescence polarization assay for binding towards FKBP51 as well as the homologs FKBP12, FKBP12.6 and FKBP52 (Table 1).
(§2) Example 8: […] of the Macrocyclic FKBP51 Ligands by SPPS

The target in another experiment is FKBP12 (Homo sapiens, UniProt P62942). Briefly: competitive fluorescence polarization assay, binding to FKBP12. How it is done: as §1, §2
FKBP12, sequence (P62942 whole entry): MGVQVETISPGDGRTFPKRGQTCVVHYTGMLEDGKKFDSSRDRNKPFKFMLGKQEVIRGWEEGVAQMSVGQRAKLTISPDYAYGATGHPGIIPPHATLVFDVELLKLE
A further experiment addresses FKBP12.6 (Homo sapiens, UniProt P68106). Nature of the experiment: competitive fluorescence polarization assay, binding to FKBP12.6. The method, then:
as §1, §2
On the technique in general: Fluorescence polarisation rises when a labelled molecule tumbles more slowly, as on binding a larger partner.

Where [1] appears, read: Ki [nM] FKBP51FK1, Table 1, competitive Fluorescence Polarization Assay.
[2] abbreviates: Table 1, competitive Fluorescence Polarization Assay, read-out: Ki [nM] FKBP12.
Setting [3] is: Table 1, competitive Fluorescence Polarization Assay, read-out: Ki [nM] FKBP12.6.
[4] abbreviates: affinity, same values as Table 2 FKBP51FK1.

A word on the Ki: it is the dissociation constant of the complex between target and ligand, obtained from inhibition or displacement.

FKBP12.6, sequence (P68106 whole entry): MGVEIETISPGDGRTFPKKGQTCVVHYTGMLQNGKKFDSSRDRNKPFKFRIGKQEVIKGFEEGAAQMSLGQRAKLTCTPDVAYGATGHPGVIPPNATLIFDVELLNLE

For `COc1ccc(CC[C@H]2OC(=O)[C@@H]3CCCCN3C(=O)[C@@H](C3CCCCC3)c3cc(OC)c(OC)c(c3)OCCOc3cccc2c3)cc1OC` [Compound 57], the inhibition constant (Ki) at FKBP51FK1 (setting [1]) worked out at 47 nM; on FKBP12 (setting [2]) it was 308 nM; on FKBP12.6 (setting [3]), 78 nM.

Take `COc1ccc(CC[C@@H](OC(=O)[C@@H]2CCCCN2C(=O)[C@H](c2cc(OC)c(OC)c(OC)c2)C2CCCCC2)c2cccc(OCC(=O)O)c2)cc1OC` [SAFit1, reference compound]: the inhibition constant (Ki) at FKBP51FK1 (read-out: FKBP51FK1 Ki, Table 2, [a] standard error from three, [c] error from two independent measurements) is 4 ± 1 nM; on FKBP12 (Table 2, read-out: FKBP12 Ki), 163 ± 9 nM; on FKBP12.6 (Table 2, read-out: FKBP12.6 Ki), 19 ± 2 nM.

For `COc1ccc(CC[C@H]2OC(=O)[C@@H]3CCCCN3C(=O)[C@@H](C3CCCCC3)c3cc(OC)c(OC)c(c3)OCCCCOc3cccc2c3)cc1OC` [Compound 43], the inhibition constant (Ki) on FKBP51FK1 (setting [1]) worked out at 30 nM; on FKBP12 (setting [2]), 92 nM; on FKBP12.6 (setting [3]) it was 62 nM.

On to `COc1ccc(CC[C@H]2OC(=O)[C@@H]3CCCCN3C(=O)[C@@H](C3CCCCC3)c3cc(OC)c(c(OC)c3)OCCOC/C=C/COc3cccc2c3)cc1OC` [33-(E)], for which the figures for the inhibitory constant (Ki) at FKBP12 (setting [2]) and at FKBP12.6 (setting [3]) were 534 nM and 361 nM, respectively.

`COc1ccc(CC[C@H]2OC(=O)[C@@H]3CCCCN3C(=O)[C@@H](C3CCCCC3)CC(O)C(O)COCCOc3cccc2c3)cc1OC` (stereo partly drawn) [Compound 82, (2R,5S,12R)-12-cyclohexyl-2-[2-(3,4-dimethoxyphenyl)ethyl]-14,15-dihydroxy-3,17,20-trioxa-10-azatricyclo[19.3.1.0^5,10]pentacosa-1(25),21,23-triene-4,11-dione] returned a Ki at FKBP51FK1 (Ki, bound to FKBP51, text b114) of 1200 nM. Also, at FKBP12, the “binding to FKBP12 (in words)” value is “did not bind”. Further, the “binding to FKBP12.6 (in words)” value at FKBP12.6 is recorded as “did not bind”.

Turning to `COc1ccc(CC[C@H]2OC(=O)[C@@H]3CCCCN3C(=O)[C@@H](C3CCCCC3)c3cc(OC)c(OC)c(c3)OCCC(=O)CCOc3cccc2c3)cc1OC` [Compound 61a], the values for the Ki on FKBP51FK1 (setting [1]), at FKBP12 (setting [2]) and on FKBP12.6 (setting [3]) were 8 nM, 38 nM and 22 nM, respectively.

Turning to `COc1ccc(CC[C@H]2OC(=O)[C@@H]3CCCCN3C(=O)[C@@H](C3CCCCC3)NC(=O)C3(CCCC3)NC(=O)COc3cccc2c3)cc1OC` [Compound 88, (2′R,5'S,12′R)-12′-cyclohexyl-2′-[2-(3,4-dimethoxyphenyl)ethyl]-3′, 19′-dioxa-10′, 13′, 16′-triazaspiro[cyclopentane-1,15′-tricyclo[18.3.1.0^5,10]tetracosane]-1′(24′),20′, 22′-triene-4′, 11′, 14′, 17′-tetrone], the Ki is 1300 nM at FKBP51FK1 (setting [4]); over 80000 nM at FKBP12 (Table 2, read-out: FKBP12 Ki); over 80000 nM on FKBP12.6 (Table 2, read-out: FKBP12.6 Ki).

As for `COc1ccc(CC[C@H]2OC(=O)[C@@H]3CCCCN3C(=O)[C@@H](C3CCCCC3)c3cc(OC)c(c(OC)c3)OCCOC/C=C\COc3cccc2c3)cc1OC` [33-(Z)], the Ki is 309 nM on FKBP12 (setting [2]) and 186 nM at FKBP12.6 (setting [3]).

With `COc1ccc(CC[C@H]2OC(=O)[C@@H]3CCCCN3C(=O)[C@@H](C3CCCCC3)NC(=O)[C@@H]3CCC[C@H]3NC(=O)COc3cccc2c3)cc1OC` [Compound 94, (2R,5S,12R,15R,19R)-12-cyclohexyl-2-[2-(3,4-dimethoxyphenyl)ethyl]-3,23-dioxa-10,13,20-triazatetracyclo[22.3.1.0^5,10.0^15,19]octacosa-1(28),24,26-triene-4,11,14,21-tetrone], the Ki is 1800 nM at FKBP51FK1 (setting [4]); over 80000 nM on FKBP12 (Table 2, read-out: FKBP12 Ki); over 80000 nM at FKBP12.6 (Table 2, read-out: FKBP12.6 Ki).

Take `COc1ccc(CC[C@H]2OC(=O)[C@@H]3CCCCN3C(=O)[C@@H](C3CCCCC3)NC(=O)CNC(=O)COc3cccc2c3)cc1OC` [Compound 83, (2R,5S,12R)-12-cyclohexyl-2-[2-(3,4-dimethoxyphenyl)ethyl]-3,19-dioxa-10,13,16-triazatricyclo[18.3.1.0^5,10]tetracosa-1(24),20,22-triene-4,11,14,17-tetrone]: the Ki is 2300 nM at FKBP51FK1 (setting [4]); over 80000 nM at FKBP12 (Table 2, read-out: FKBP12 Ki); over 80000 nM on FKBP12.6 (Table 2, read-out: FKBP12.6 Ki).

As for `COc1ccc(CC[C@H]2OC(=O)[C@@H]3CCCCN3C(=O)[C@@H](C3CCCCC3)NC(=O)CN(C)C(=O)COc3cccc2c3)cc1OC` [Compound 89, (2R,5S,12R)-12-cyclohexyl-2-[2-(3,4-dimethoxyphenyl)ethyl]-16-methyl-3,19-dioxa-10,13,16-triazatricyclo[18.3.1.0^5,10]tetracosa-1(24),20,22-triene-4,11,14,17-tetrone], the inhibition constant Ki at FKBP51FK1 (setting [4]) was 3100 nM; on FKBP12 (Table 2, read-out: FKBP12 Ki), over 80000 nM; at FKBP12.6 (Table 2, read-out: FKBP12.6 Ki), over 80000 nM.

For the compound `COc1ccc(CC[C@H]2OC(=O)[C@@H]3CCCCN3C(=O)[C@@H](C3CCCCC3)NC(=O)[C@H]3CCCN3C(=O)COc3cccc2c3)cc1OC` [Compound 90, (9R,12R,19S,22R)-12-cyclohexyl-22-[2-(3,4-dimethoxyphenyl)ethyl]-2,21-dioxa-5,11,14-triazatetracyclo[21.3.1.0^5,9.0^14,19]heptacosa-1(26),23(27),24-triene-4,10,13,20-tetrone], the Ki on FKBP12 (Table 2, read-out: FKBP12 Ki) is over 80000 nM; on FKBP12.6 (Table 2, read-out: FKBP12.6 Ki), over 80000 nM.

On to `COc1ccc(CC[C@H]2OC(=O)[C@@H]3CCCCN3C(=O)[C@@H](C3CCCCC3)c3cc(OC)c(OC)c(c3)OCC/C=C\COc3cccc2c3)cc1OC` [36-(Z)], for which the results for the inhibition constant Ki at FKBP51FK1 (setting [1]), at FKBP12 (setting [2]) and on FKBP12.6 (setting [3]) were 77 nM, 118 nM and 96 nM, respectively.

Consider `COc1ccc(CC[C@H]2OC(=O)[C@@H]3CCCCN3C(=O)[C@@H](C3CCCCC3)c3cc(OC)c(c(OC)c3)OCCCCCOc3cccc2c3)cc1OC` [Compound 40], for which the Ki at FKBP51FK1 (setting [1]) stood at 102 nM; at FKBP12 (setting [2]), 204 nM; on FKBP12.6 (setting [3]), 198 nM.

Consider `COc1ccc(CC[C@H]2OC(=O)[C@@H]3CCCCN3C(=O)[C@@H](C3CCCCC3)c3cc(OC)c(OC)c(c3)OCCCOC/C=C/COc3cccc2c3)cc1OC` [38-(E)], for which the figures for the Ki at FKBP51FK1 (setting [1]), at FKBP12 (setting [2]) and at FKBP12.6 (setting [3]) were 93 nM, 269 nM and 144 nM, respectively.

Take `COc1ccc(CC[C@H]2OC(=O)[C@@H]3CCCCN3C(=O)[C@@H](C3CCCCC3)c3cc(OC)c(OC)c(c3)OCCCC(=O)COc3cccc2c3)cc1OC` [Compound 61b]: the values for the inhibition constant (Ki) on FKBP51FK1 (setting [1]), at FKBP12 (setting [2]) and at FKBP12.6 (setting [3]) were 28 nM, 58 nM and 37 nM, respectively.

On to `COc1ccc(CC[C@H]2OC(=O)[C@@H]3CCCCN3C(=O)[C@@H](C3CCCCC3)NC(=O)C3(CC3)NC(=O)COc3cccc2c3)cc1OC` [Compound 86, (2′R,5′S,12′R)-12′-cyclohexyl-2′-[2-(3,4-dimethoxyphenyl)ethyl]-3′,19′-dioxa-10′,13′,16′-triazaspiro[cyclopropane-1,15′-tricyclo[18.3.1.0^5,10]tetracosane]-1′(24′),20′,22′-triene-4′,11′,14′,17′-tetrone], for which the Ki was over 80000 nM at FKBP12 (Table 2, read-out: FKBP12 Ki) and over 80000 nM at FKBP12.6 (Table 2, read-out: FKBP12.6 Ki).

Take `COc1ccc(CC[C@H]2OC(=O)[C@@H]3CCCCN3C(=O)[C@@H](C3CCCCC3)c3cc(OC)c(c(OC)c3)OCCOCCCCOc3cccc2c3)cc1OC` [Compound 41]: the Ki is 118 nM on FKBP51FK1 (setting [1]), 449 nM on FKBP12 (setting [2]) and 230 nM at FKBP12.6 (setting [3]).

Consider `COc1ccc(CC[C@H]2OC(=O)[C@@H]3CCCCN3C(=O)[C@@H](C3CCCCC3)NC(=O)C(C)(C)NC(=O)COc3cccc2c3)cc1OC` [Compound 85, (2R,5S,12R)-12-cyclohexyl-2-[2-(3,4-dimethoxyphenyl)ethyl]-15,15-dimethyl-3,19-dioxa-10,13,16-triazatricyclo[18.3.1.0^5,10]tetracosa-1(24),20,22-triene-4,11,14,17-tetrone], for which the Ki is 290 nM at FKBP51FK1 (setting [4]); over 80000 nM at FKBP12 (Table 2, read-out: FKBP12 Ki); over 80000 nM on FKBP12.6 (Table 2, read-out: FKBP12.6 Ki).

Take `COc1ccc(CC[C@H]2OC(=O)[C@@H]3CCCCN3C(=O)[C@@H](C3CCCCC3)c3cc(OC)c(c(OC)c3)OCC/C=C\COc3cccc2c3)cc1OC` [32-(Z)]: the Ki at FKBP51FK1 (setting [1]) stood at 80 nM; at FKBP12 (setting [2]), 189 nM; on FKBP12.6 (setting [3]) it was 237 nM.

With `COc1ccc(CC[C@H]2OC(=O)[C@@H]3CCCCN3C(=O)[C@@H](C3CCCCC3)NC(=O)[C@@H](C)NC(=O)COc3cccc2c3)cc1OC` [Compound 84, (2R,5S,12R,15R)-12-cyclohexyl-2-[2-(3,4-dimethoxyphenyl)ethyl]-15-methyl-3,19-dioxa-10,13,16-triazatricyclo[18.3.1.0^5,10]tetracosa-1(24),20,22-triene-4,11,14,17-tetrone], the inhibition constant (Ki) on FKBP12 (Table 2, read-out: FKBP12 Ki) was over 80000 nM; on FKBP12.6 (Table 2, read-out: FKBP12.6 Ki), over 80000 nM.

Consider `COc1cc2cc(c1)[C@@H](CCc1ccc(OC)c(OC)c1)OC(=O)[C@@H]1CCCCN1C(=O)[C@@H](C1CCCCC1)NC(=O)C(C)(C)NC(=O)CO2` [Compound 104, (2R,5S,12R)-12-cyclohexyl-2-[2-(3,4-dimethoxyphenyl)ethyl]-22-methoxy-15,15-dimethyl-3,19-dioxa-10,13,16-triazatricyclo[18.3.1.0^5,10]tetracosa-1(24),20,22-triene-4,11,14,17-tetrone], for which, at FKBP51FK1, the “affinity (in words)” value was “bound similarly to the glycine derivative 83”. For the same compound, the inhibition constant (Ki) at FKBP51FK1 (FKBP51FK1 Ki [μM], Table 2, [a] standard error from three, [c] error from two independent measurements) came to 390 nM.

In the case of `COc1ccc(CC[C@H]2OC(=O)[C@@H]3CCCCN3C(=O)[C@@H](C3CCCCC3)NC(=O)CCCNC(=O)COc3cccc2c3)cc1OC` [Compound 95, (2R,5S,12R)-12-cyclohexyl-2-[2-(3,4-dimethoxyphenyl)ethyl]-3,21-dioxa-10,13,18-triazatricyclo[20.3.1.0^5,10]hexacosa-1(26),22,24-triene-4,11,14,19-tetrone], the “affinity (in words)” value on FKBP51FK1 was “no binding”.
